Consider 28 molecules from ChEMBL document CHEMBL4837266, “Ugi Reaction Synthesis of Oxindole-Lactam Hybrids as Selective Butyrylcholinesterase Inhibitors” (ACS Med Chem Lett, 2021).

The target in experiment [1] is T1, Amine oxidase [flavin-containing] A (Homo sapiens, UniProt P21397).
T1 sequence (P21397 whole entry): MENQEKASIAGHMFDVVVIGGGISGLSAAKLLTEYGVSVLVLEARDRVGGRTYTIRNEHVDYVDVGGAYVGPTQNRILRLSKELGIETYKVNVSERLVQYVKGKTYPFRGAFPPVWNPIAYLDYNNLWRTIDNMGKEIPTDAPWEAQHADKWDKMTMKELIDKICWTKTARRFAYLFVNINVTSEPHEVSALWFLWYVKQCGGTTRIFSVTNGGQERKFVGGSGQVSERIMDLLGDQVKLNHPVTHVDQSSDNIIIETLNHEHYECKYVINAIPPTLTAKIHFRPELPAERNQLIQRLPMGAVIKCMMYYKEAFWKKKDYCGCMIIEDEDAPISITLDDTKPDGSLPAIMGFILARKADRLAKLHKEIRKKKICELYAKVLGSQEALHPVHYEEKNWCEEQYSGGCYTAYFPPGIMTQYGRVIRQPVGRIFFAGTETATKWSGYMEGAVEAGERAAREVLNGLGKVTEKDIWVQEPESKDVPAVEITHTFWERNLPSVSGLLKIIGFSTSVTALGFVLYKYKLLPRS
The experiment is described as follows: Inhibition of recombinant MAO-A (unknown origin) assessed as reduction in 4-hydroxyquinoline level using kynuramine as a substrate at 1 uM incubated for 20 mins by discontinuous fluorimetric assay relative to control.

In experiment [2] the target is T2, Cholinesterase (Equus caballus, UniProt P81908). The experiment is described as follows: Inhibition of equine serum BuChE using S-butyrylthiocholine iodide as a substrate measured for 125 secs by DNTB reagent based Ellman's method. Type of experiment: cell-free. For orientation: Ellman's reagent forms a yellow product with free thiols.
T2 sequence (P81908 whole entry): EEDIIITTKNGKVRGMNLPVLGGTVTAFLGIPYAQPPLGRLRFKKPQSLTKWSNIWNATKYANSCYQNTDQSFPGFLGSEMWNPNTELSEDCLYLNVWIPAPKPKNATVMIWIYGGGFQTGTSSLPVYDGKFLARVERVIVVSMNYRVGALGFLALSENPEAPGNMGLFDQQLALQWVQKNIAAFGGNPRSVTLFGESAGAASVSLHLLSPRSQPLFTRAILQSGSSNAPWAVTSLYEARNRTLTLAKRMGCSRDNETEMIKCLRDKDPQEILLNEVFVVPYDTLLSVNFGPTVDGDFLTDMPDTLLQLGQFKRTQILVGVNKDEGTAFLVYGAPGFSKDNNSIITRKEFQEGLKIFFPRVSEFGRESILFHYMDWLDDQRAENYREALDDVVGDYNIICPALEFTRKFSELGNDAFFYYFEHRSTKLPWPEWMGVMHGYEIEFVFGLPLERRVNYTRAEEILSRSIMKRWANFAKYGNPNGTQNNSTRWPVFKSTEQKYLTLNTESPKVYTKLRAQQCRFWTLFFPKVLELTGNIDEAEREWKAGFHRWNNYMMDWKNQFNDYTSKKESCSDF
Experiment [3] addresses T3, Amine oxidase [flavin-containing] B (Homo sapiens, UniProt P27338).
T3 sequence (P27338 whole entry): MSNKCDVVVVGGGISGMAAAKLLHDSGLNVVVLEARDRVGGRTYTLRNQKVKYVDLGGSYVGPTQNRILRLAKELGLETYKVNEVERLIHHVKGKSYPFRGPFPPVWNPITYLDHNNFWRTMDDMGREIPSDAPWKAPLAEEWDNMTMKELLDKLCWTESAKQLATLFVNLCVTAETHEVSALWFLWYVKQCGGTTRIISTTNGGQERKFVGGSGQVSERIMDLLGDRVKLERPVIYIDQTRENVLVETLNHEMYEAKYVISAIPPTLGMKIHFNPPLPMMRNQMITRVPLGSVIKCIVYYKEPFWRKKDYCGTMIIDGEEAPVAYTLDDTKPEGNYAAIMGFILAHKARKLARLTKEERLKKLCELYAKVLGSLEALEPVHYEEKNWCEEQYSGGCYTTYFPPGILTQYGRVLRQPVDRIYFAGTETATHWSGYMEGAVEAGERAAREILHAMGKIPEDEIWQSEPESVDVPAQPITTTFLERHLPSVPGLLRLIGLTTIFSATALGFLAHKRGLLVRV
The experiment is described as follows: Inhibition of recombinant MAO-B (unknown origin) assessed as reduction in 4-hydroxyquinoline level using kynuramine as a substrate at 1 uM incubated for 20 mins by discontinuous fluorimetric assay relative to control. The conditions noted are these: read-out: INH.

Experiment [4] concerns the target T4, Acetylcholinesterase (Electrophorus electricus, UniProt O42275). The experiment is described as follows: Inhibition of electric eel AChE using […] as a substrate measured for 125 secs by DNTB reagent based Ellman's method.
For experiment [5], the target named is T2, Cholinesterase. The experiment is described as follows: Mixed type inhibition of equine serum BuChE using S-butyrylthiocholine iodide as a substrate by Cornish-Bowden plot analysis. Type of experiment: cell-free.
Experiment [6] concerns the target T4, Acetylcholinesterase. The experiment is described as follows: Inhibition of electric eel AChE using […] as a substrate by Cornish-Bowden plot analysis.

T4 sequence (O42275 whole entry): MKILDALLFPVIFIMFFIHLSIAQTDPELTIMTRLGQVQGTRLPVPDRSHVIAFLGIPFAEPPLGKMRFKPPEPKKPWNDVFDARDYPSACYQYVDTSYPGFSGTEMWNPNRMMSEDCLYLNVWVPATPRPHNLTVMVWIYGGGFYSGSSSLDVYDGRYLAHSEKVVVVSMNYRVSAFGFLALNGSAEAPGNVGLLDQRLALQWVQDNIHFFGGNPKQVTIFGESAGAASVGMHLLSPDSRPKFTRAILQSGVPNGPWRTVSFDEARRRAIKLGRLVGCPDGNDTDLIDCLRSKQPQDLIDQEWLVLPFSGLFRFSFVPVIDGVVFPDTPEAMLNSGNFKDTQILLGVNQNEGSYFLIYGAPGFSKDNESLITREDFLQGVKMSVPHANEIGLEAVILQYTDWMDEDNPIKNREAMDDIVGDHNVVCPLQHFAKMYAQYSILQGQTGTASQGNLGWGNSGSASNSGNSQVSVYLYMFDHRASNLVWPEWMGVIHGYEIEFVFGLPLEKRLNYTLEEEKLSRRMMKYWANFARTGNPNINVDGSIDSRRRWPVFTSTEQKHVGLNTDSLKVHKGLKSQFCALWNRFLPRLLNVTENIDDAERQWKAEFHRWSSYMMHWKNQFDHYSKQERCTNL

For orientation: IC50 means the concentration that inhibits the measured activity by half. Lower therefore signals higher potency. As to `C#CCN1C(=O)C(C(=O)NCc2ccccc2)(N2CCCC2=O)c2ccccc21` (stereo not drawn), the results for the inhibition at 1 µM in experiment [1] and in experiment [3] were 13.2% and 6.1%, respectively. Besides, the IC50 on Cholinesterase [2] is > 100 µM.

Turning to `CC(C)(C)NC(=O)C1(N2CCC2=O)C(=O)Nc2c(C(F)(F)F)cccc21` (stereo not drawn), at Cholinesterase [2], the IC50 is > 100 µM.

Molecule `O=C1CCCN1C1(C(=O)NC2CCCCC2)C(=O)Nc2ccccc21` (stereo not drawn) registered an IC50 against Cholinesterase [2] of 44 µM.

Regarding `C#CCN1C(=O)C(C(=O)NC(C)(C)C)(N2CCC2=O)c2ccccc21` (stereo not drawn), the inhibition at 1 µM in experiment [1] worked out at 5.9%; in experiment [3], 7.4%.

In the case of `CC(C)(C)NC(=O)C1(N2CCC2=O)C(=O)N(Cc2ccccc2)c2ccccc21` (stereo not drawn), the IC50 against Cholinesterase [2] was found to be 51 µM.

Turning to `CC(C)(C)NC(=O)C1(N2CCC2=O)C(=O)Nc2ccccc21` (stereo not drawn), the concentration for half-maximal inhibition (IC50) on Cholinesterase [2] is > 100 µM.

The molecule `CC(C)(C)NC(=O)C1(N2CCCC2=O)C(=O)Nc2ccc(I)cc21` (stereo not drawn) yielded an IC50 against Cholinesterase [2] of 68 µM.

`CN1C(=O)C(C(=O)NC(C)(C)CC(C)(C)C)(N2CCCC2=O)c2ccccc21` (stereo not drawn) returned an IC50 at Cholinesterase [2] of 18 µM.

On Cholinesterase [2], `Cc1cc(C)c2c(c1)C(C(=O)NC(C)(C)C)(N1CCC1=O)C(=O)N2` (stereo not drawn) yielded an IC50 of 57 µM.

Regarding `CC(C)(C)NC(=O)C1(N2CCCC2=O)C(=O)N(Cc2ccccc2)c2ccccc21` (stereo not drawn), on Cholinesterase [2], half-maximal inhibition (IC50) was put at 32 µM.

Consider `CC(C)(C)NC(=O)C1(N2CCCC2=O)C(=O)Nc2ccc([N+](=O)[O-])cc21` (stereo not drawn), for which the figures for the IC50 on Acetylcholinesterase [4] and on Cholinesterase [2] were 45 µM and 94 µM, respectively.

For the molecule `CC(C)(C)NC(=O)C1(N2CCCC2=O)C(=O)Nc2ccc(Br)cc21` (stereo not drawn), the concentration for half-maximal inhibition (IC50) against Cholinesterase [2] is > 100 µM.

A word on the Ki: it is the dissociation constant of the complex between target and ligand, obtained from inhibition or displacement. High values mean weaker binding, low ones tighter binding. In the case of `CC(C)(C)CC(C)(C)NC(=O)C1(N2CCCC2=O)C(=O)Nc2ccccc21` (stereo not drawn), the IC50 at Acetylcholinesterase [4] is > 100 µM; against Cholinesterase [2] it was 8.4 µM. For the same molecule, the Ki on Cholinesterase [5] was 15 µM; at Acetylcholinesterase [6], 7.4 µM.

Turning to `CC(C)(C)NC(=O)C1(N2CCC2=O)C(=O)N(c2ccccc2)c2ccccc21` (stereo not drawn), the IC50 against Cholinesterase [2] was found to be 22 µM.

Turning to `CN1C(=O)C(C(=O)NC(C)(C)C)(N2CCCC2=O)c2ccccc21` (stereo not drawn), the IC50 at Cholinesterase [2] was > 100 µM.

`O=C1CCCN1C1(C(=O)NCc2ccccc2)C(=O)Nc2ccccc21` (stereo not drawn) displayed an IC50 at Cholinesterase [2] of 71 µM.

Regarding `CC(C)(C)NC(=O)C1(N2CCC2=O)C(=O)Nc2ccc([N+](=O)[O-])cc21` (stereo not drawn), on Cholinesterase [2], the IC50 was > 100 µM.

`CC(C)(C)CC(C)(C)NC(=O)C1(N2CCC2=O)C(=O)Nc2ccccc21` (stereo not drawn) yielded an IC50 against Cholinesterase [2] of 42 µM.

For `CC(C)(C)CC(C)(C)NC(=O)C1(N2CCC2=O)C(=O)N(Cc2ccccc2)c2ccccc21` (stereo not drawn), the IC50 at Acetylcholinesterase [4] is > 100 µM; against Cholinesterase [2], 1.8 µM. The results for the Ki on Cholinesterase [5] and at Acetylcholinesterase [6] were 4.8 µM and 1.8 µM, respectively.

On to `O=C1CCN1C1(C(=O)NCc2ccccc2)C(=O)Nc2ccccc21` (stereo not drawn), for which the 50% inhibitory concentration (IC50) against Acetylcholinesterase [4] and against Cholinesterase [2] was > 100 µM in each case.

Molecule `CC(C)(C)NC(=O)C1(N2CCC2=O)C(=O)Nc2ccc(I)cc21` (stereo not drawn) yielded an IC50 against Cholinesterase [2] of 80 µM.

With `CC(C)(C)NC(=O)C1(N2CCCC2=O)C(=O)N(c2ccccc2)c2ccccc21` (stereo not drawn), at Cholinesterase [2], 6.2 µM corresponded to half-maximal inhibition (IC50). In addition, the Ki turned out to be 18 µM on Cholinesterase [5] and 6.1 µM on Acetylcholinesterase [6].

`Cc1cc(C)c2c(c1)C(C(=O)NC(C)(C)C)(N1CCCC1=O)C(=O)N2` (stereo not drawn): the IC50 against Cholinesterase [2] was > 100 µM.

Turning to `CC(C)(C)NC(=O)C1(N2CCCC2=O)C(=O)Nc2ccccc21` (stereo not drawn), at Cholinesterase [2], the IC50 worked out at 54 µM.

`C#CCN1C(=O)C(C(=O)NCc2ccccc2)(N2CCC2=O)c2ccccc21` (stereo not drawn): the inhibition at 1 µM stood at 8.9% in experiment [1] and 7.6% in experiment [3]. Also, at Cholinesterase [2], the IC50 is > 100 µM.

For the molecule `CC(C)(C)NC(=O)C1(N2CCC2=O)C(=O)Nc2ccc(Br)cc21` (stereo not drawn), the half-inhibitory concentration (IC50) on Cholinesterase [2] is > 100 µM.

Regarding `C#CCN(C)CCCOc1ccc(Cl)cc1Cl` [CLORGILINE], in experiment [1], the inhibition at 1 µM came to 100%.

On to `C[C@H](NCc1ccc(OCc2cccc(F)c2)cc1)C(N)=O` [SAFINAMIDE], for which the inhibition at 1 µM in experiment [1] was -1.6%.
